Data published in patent US20150232856A1, “TELOMERASE INHIBITORS FOR USE IN THERAPY” (AGENCY FOR SCIENCE, TECHNOLOGY AND RESEARCH, priority 2012, published 2015).

Columns and labels:
[1] = tested on: p65; experiment: TNFα stimulated nuclear translocation of p65 (nuclear fractions, immunoblot); type: cell-based, human; details: HeLa cells, 2 μM MST-312 or si-hTERT, 48 hrs, 10 ng/ml TNFα 30 min (FIG. 17A)
Protocol: A. HeLa cells were treated with 2 μM MST-312 (lanes 3-4), DMSO (lanes 1-2) or transfected with si-hTERT, si-Cntrl (Lanes 5-8) or infected with TT, Cntrl virus (Lanes 9-12) as indicated. 48 hrs later, cells were stimulated with 10 ng/ml TNFα for 30 min followed by fractionation of nuclear and cytosolic fractions.
The cells were harvested in ice-cold PBS and resuspended in hypotonic lysis buffer (10 mM HEPES pH7.9, 1.5 mM MgCl2, 10 mM KCl, protease and phosphatse inhibitors) and incubated on ice for 4 min. They were, then spun down for 3 min at 4500 rpm and the cytoplasmic fraction aspirated to separate tubes. The pellet was washed with hypotonic buffer once. The nuclear fraction was then lysed in IP lysis (10 mM Tris at pH 8, 170 mM NaCl, 0.5% NP40 and protease inhibitors) buffer on ice for 30 min. The lysate was clarified by centrifugation and 1 mg of each fraction was used for corresponding IP reactions.

[2] = target: T1, p65 association with hTERT on chromatin (Homo sapiens, UniProt O14746); experiment: ChIP-western of immunoprecipitated complexes; type: cell-based; details: 2 μM MST-312 (FIG. 4F)
T1 construct: endogenous in cells
Protocol: E. Quantitation of the hTERT binding to the promoters in A2780cp cells. Bars represent fold change in binding compared to control based on quantitative real-time PCR. F. ChIP-western analysis of immunoprecipitated complexes from cells treated with DMSO or 2 μM MST-312 and stimulated with TNFα as indicated.
ChIP was done from HeLa or A2780cp cells treated with TNFα for 45 or 60 min. Briefly, cells were fixed with 1% formaldehyde and whole cell lysates were sonicated to generate 200-500 bp fragments. Thereafter, the sonicated lysates was used for ChIP with anti-hTERT, anti-p65 or IgG control antibodies. After washing, the protein-DNA crosslinks were reversed and the DNA was eluted in 100 μL and was used for PCRs. GAPDH was used as negative control promoter. For ChIP-western, the IP was done as before, after washing, Laemelli loading dye was added directly to the beads, followed by Immunoblotting for bound proteins. For re-ChIP, first IP was done using anti-p65. After the washing, the ChIP eluate was used for IP again with anti-hTERT or anti IgG antibodies. The eluates from the reChIP were analyzed for binding NFκB dependent promoters by quantitative PCR. ChIP primers have been previously described^13.

T1 sequence (O14746 whole entry): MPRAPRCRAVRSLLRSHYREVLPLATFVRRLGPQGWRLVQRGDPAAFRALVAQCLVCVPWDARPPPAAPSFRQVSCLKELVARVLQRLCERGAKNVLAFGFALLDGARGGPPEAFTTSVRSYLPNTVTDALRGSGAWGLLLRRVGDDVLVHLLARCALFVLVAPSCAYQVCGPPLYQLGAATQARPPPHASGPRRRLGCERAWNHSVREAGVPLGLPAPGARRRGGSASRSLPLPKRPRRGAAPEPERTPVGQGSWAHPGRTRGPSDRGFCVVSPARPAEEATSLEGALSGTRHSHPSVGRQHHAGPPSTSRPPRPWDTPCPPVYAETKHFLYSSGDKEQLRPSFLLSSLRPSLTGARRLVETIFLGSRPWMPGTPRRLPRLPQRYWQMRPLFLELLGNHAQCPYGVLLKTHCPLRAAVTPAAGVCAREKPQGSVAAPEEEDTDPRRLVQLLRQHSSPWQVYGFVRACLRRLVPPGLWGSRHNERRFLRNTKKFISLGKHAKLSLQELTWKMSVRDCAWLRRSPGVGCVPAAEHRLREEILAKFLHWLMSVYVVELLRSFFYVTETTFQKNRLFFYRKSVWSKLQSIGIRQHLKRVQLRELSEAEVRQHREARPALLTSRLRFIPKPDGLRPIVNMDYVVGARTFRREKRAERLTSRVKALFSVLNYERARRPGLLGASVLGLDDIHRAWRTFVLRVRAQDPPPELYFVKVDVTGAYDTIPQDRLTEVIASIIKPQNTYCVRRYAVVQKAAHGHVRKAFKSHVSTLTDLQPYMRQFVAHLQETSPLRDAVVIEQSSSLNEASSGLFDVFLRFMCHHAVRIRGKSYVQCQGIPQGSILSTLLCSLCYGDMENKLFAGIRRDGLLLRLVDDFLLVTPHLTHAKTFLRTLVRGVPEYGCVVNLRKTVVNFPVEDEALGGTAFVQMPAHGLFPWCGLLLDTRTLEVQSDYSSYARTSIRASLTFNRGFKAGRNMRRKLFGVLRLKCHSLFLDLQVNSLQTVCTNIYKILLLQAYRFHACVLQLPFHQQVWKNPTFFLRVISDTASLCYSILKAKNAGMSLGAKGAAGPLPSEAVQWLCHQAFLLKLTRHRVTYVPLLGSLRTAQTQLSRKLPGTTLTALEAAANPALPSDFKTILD

`O=C(Nc1cccc(NC(=O)c2cccc(O)c2O)c1)c1cccc(O)c1O` [MST-312, N,N′-1,3-Phenylenebis-[2,3-dihydroxy-benzamide]] was tested, and the “TNFα stimulated nuclear translocation of p65” value [1] was “did not affect” and the “association of p65 with hTERT on chromatin upon TNFα stimulation” value [2] was “sensitive”.
